From patent US20260028338A1, “HETEROBIFUNCTIONAL COMPOUNDS AND METHODS OF TREATING DISEASE” (Halda Therapeutics OpCo, Inc., priority 2023, published 2026) come the findings set out here.

The target in test [1] is T1, biotinylated BCL6 (5-129) (Homo sapiens, UniProt P41182).
T1 construct: biotinylated BCL6 (5-129) was diluted in 10 mM HEPES pH 7.4; biotin (biotinylated)
The test can be described thus: SPR assay for binding affinity to BCL6. The settings on record: Biacore 8K, 25° C., immobilized biotinylated BCL6 (5-129). As for the experimental part: Exemplary compounds were tested for ability to bind to B-cell lymphoma 6 (BCL6) protein.
Binding studies by surface plasmon resonance (SPR) were performed using a Biacore 8K (Cytiva) instrument at 25° C. Briefly, biotinylated BCL6 (5-129) was diluted in 10 mM HEPES pH 7.4, 150 mM NaCl, 0.05% Surfactant P20, 0.5 mM TCEP, 3% DMSO to 1-5 μg/mL and was immobilized on an SA sensor chip (Cytiva, BR100032), resulting in surface densities at 1000-3000 resonance units (RUs). Test compounds were serially diluted five times in the same buffer and were injected to the immobilized surface. Kinetic determination experiments were performed using single-cycle kinetics with 110-120 s contact time, 1000-4000 s dissociation time, 30 μL/min flow rate. Binding data were analyzed by using Biacore insight evaluation software to determine KD values for test compounds.

Test [2] deals with T2, His-tagged BRD4 BD1 (46-168) (Homo sapiens, UniProt O60885).
T2 construct: His-tagged BRD4 BD1 (46-168) and biotinylated histone H4K5/8/12/16(Ac) peptide
Nature of the test: AlphaLISA competition assay, BRD4 BD1. It is filed as binding. The following applies: BRD4-BD1, AlphaLISA competition with biotinylated histone H4K5/8/12/16(Ac) peptide, 10 nM. As for the experimental part:
(§1) Exemplary compounds were tested for ability to bind to bromodomain-containing protein 4 (BRD4).
(§2) Compounds were tested using a developed AlphaLISA competition assay. Briefly, His-tagged BRD4 BD1 (46-168) and biotinylated histone H4K5/8/12/16(Ac) peptide (ANASPEC, AS-64989-1) were incubated in 20 mM HEPES pH 7.5, 100 mM NaCl, 0.5 mM TCEP, 0.1% BSA, 0.02% CHAPS at a final concentration of 10 nM. Test compounds were serially diluted ten times in the same buffer and were added to the BRD4-peptide mixture for 1 h incubation at room temperature. Following incubation, Streptavidin AlphaLISA acceptor beads (PerkinElmer, AL125M) were added to BRD4-peptide-compound samples to a final concentration of 0.01 mg/mL for a 0.5 h incubation at room temperature in the dark. Following incubation, the same amount of Nickel Chelate Alpha donor beads (PerkinElmer, AS101M) were added to the samples for a final 1 h incubation. The AlphaLISA signals were measured using an EnVision plate reader (PerkinElmer). The data were uploaded to Screening Ultra (Dotmatics) to determine the half-maximal inhibitory concentration (IC50) for each test compound.

Test [3] has as its target T3, His-tagged BRD4 BD2 (333-460) (Homo sapiens, UniProt O60885).
T3 construct: The same assay was developed for His-tagged BRD4 BD2 (333-460) and biotinylated histone H4K5/8/12/16(Ac) peptide
Nature of the test: AlphaLISA competition assay, BRD4 BD2. It is filed as binding. The following applies: BRD4-BD2, AlphaLISA competition with biotinylated histone H4K5/8/12/16(Ac) peptide, 20 nM. As for the experimental part:
as §1, §2
The same assay was developed for His-tagged BRD4 BD2 (333-460) and biotinylated histone H4K5/8/12/16(Ac) peptide at a final concentration of 20 nM.

Test [4] relates to T-Rex 293 cell line SC cells having increased expression of BCL6 protein. The test can be described thus: Cellular growth inhibition assay, T-Rex 293 SC cells with doxycycline (CellTiter-Glo). It counts as cell-based. The following applies: T-Rex 293 SC cells with 10 ng/mL doxycycline (increased BCL6 expression), 72 hours, CellTiter-Glo 2.0. The procedure:
(§3) Exemplary compounds were tested for ability to inhibit the proliferation of the following types of cells: (i) a T-Rex 293 cell line having increased expression of BCL6 protein due to exposure of doxycycline and (ii) a T-Rex 293 cell line lacking increased expression of BCL6 protein.
(§4) The following types of cells were prepared for this experiment: (i) a T-Rex 293 cell line having increased expression of BCL6 protein due to exposure to doxycycline and (ii) a T-Rex 293 cell line lacking increased expression of BCL6 protein. Ability of the test compounds to inhibit proliferation of the foregoing cell types was evaluated according to the procedures set forth below.
(§5) The doxycycline-inducible BCL6 protein expressing cell line was established using the following protocol: T-Rex 293 cells were purchased from Invitrogen (Cat #R71007) and transfected using Lipofectamine 2000 with the wild-type BCL6 protein sequence cloned into the pcDNA4/TO vector. Transfected cells were selected using 400 μg/mL Zeocin (Invitrogen Cat #R25001). Following selection, single clones were raised and maintained in Dulbecco's Modified Eagle Medium (DMEM) supplemented with 10% w/w Tetracycline-free fetal bovine serum (FBS) and 250 μg/mL Zeocin. Clones were analyzed for expression of BCL6 protein in the presence and absence of 10 ng/mL doxycycline (Sigma Cat #D9891), and a single doxycycline-inducible clone (hereinafter “SC”) was selected for use in downstream assays.
(§6) The SC cells were seeded on poly-D-lysine coated, black clear-bottom 384-well plates at 2500/well, in 25 μL Dulbecco's Modified Eagle Medium (DMEM) supplemented with 10% w/w Tetracycline-free fetal bovine serum (FBS) and 1% w/w pen-strep, with or without 10 ng/mL doxycycline. Pen-Strep is a commercially available mixture of penicillin G and streptomycin, which is used in mammalian cell culture media to prevent bacterial contamination. Dulbecco's Modified Eagle Medium (DMEM) supplemented with 10% w/w Tetracycline-free fetal bovine serum (FBS) and 1% w/w pen-strep, with or without 10 ng/mL doxycycline is herein referred to as Treatment Medium. Following seeding of cells in the plates, the plates were spun at 300×g for 30 seconds, then equilibrated to room temperature for 30 minutes, and then deposited in a humidified tissue culture incubator maintained at 37° C. with 5% CO2.
(§7) At 24 hours after seeding of the cells, dilutions of test compound were prepared in DMSO and dissolved in Treatment Medium, to achieve a final DMSO concentration of 0.5% w/w, thereby providing the Test Compound Solution. A 25 μL aliquot of the Test Compound Solution was added to cells in the well plates. An equal volume of a solution containing DMSO and Treatment Medium was used as a negative control. Following treatment of cells with Test Compound Solution or said equal volume of a solution containing DMSO and Treatment Medium, the plates were spun at 300×g for 30 seconds, and then left in an incubator for 72 hours.
(§8) At the end of the treatment duration, cell viability was quantified with CellTiter-Glo 2.0 reagent (Promega Cat #G9243). For this purpose, plates were equilibrated to room temperature for 30 minutes, and then 25 μL of CellTiter-Glo 2.0 reagent was added to cells in the plate wells. Plates were then agitated on a shaker for two minutes at 500 rpm and subsequently incubated at room temperature for 10 minutes. Following incubation, the plates were spun at 3000×g for 30 seconds, then sealed with an optical adhesive cover, and luminescence readings were measured with an EnVision Plate Reader (Perkin Elmer).
(§9) Data was normalized using zero luminescence for baseline. A four-parameter non-linear regression curve fit was applied to dose-response data in GraphPad Prism data analysis software to determine the half-maximal growth inhibitory concentration (GI50) for each test compound.

In test [5] the test system is T-Rex 293 cell line SC cells lacking increased expression of BCL6 protein. The test can be described thus: Cellular growth inhibition assay, T-Rex 293 SC cells without doxycycline (CellTiter-Glo). It is filed as cell-based. The following applies: T-Rex 293 SC cells not exposed to doxycycline (no increased BCL6 expression), 72 hours, CellTiter-Glo 2.0. As for the experimental part: as §3, §4, §5, §6, §7, §8, §9

The next test deals with Su-DHL-4 cell line. The test can be described thus: Cellular growth inhibition assay, Su-DHL-4 cells (CellTiter-Glo). It is filed as cell-based. The following applies: Homo sapiens; Su-DHL-4 cell line (DLBCL), 72 hours, CellTiter-Glo 2.0. The procedure:
(§10) Exemplary compounds were tested for ability to inhibit the proliferation of Su-DHL-4 and Farage cells. Su-DHL-4 and Farage cells are commercially available diffuse large B cell lymphoma cell lines (DLBCL).
(§11) Su-DHL-4 and Farage cells were purchased from American Type Cell Culture (ATCC Cat #CRL-2957/CRL-2630) and then seeded on poly-D-lysine coated, black clear-bottom 384-well plates at 3000/well in 25 μL Roswell Park Memorial Institute media (RPMI-1640) supplemented with 10% w/w Fetal bovine serum (FBS) and 1% w/w Pen-Strep. Pen-Strep is a commercially available mixture of penicillin G and streptomycin, which is used in mammalian cell culture media to prevent bacterial contamination. Roswell Park Memorial Institute media (RPMI-1640) supplemented with 10% w/w fetal bovine serum (FBS), and 1% w/w Pen-Strep is herein referred to as Treatment Medium. Following seeding of cells in the plates, the plates were spun at 300×g for 30 seconds, then equilibrated to room temperature for 30 minutes, and then deposited in a humidified tissue culture incubator maintained at 37° C. with 5% CO2.
as §7, §8, §9

A further test relates to Farage cell line. The test can be described thus: Cellular growth inhibition assay, Farage cells (CellTiter-Glo). It counts as cell-based. The following applies: Farage cell line (DLBCL), 72 hours, CellTiter-Glo 2.0. As for the experimental part: as §10, §11, §7, §8, §9

For the compound `CNC(=O)COc1cc2cc(Nc3nc(N4CCC(CCCN5CCN(CCN(C)[C@H]6C[C@H](Oc7ccc(C(C)(C)O)cc7-c7cn(C)c(=O)c8[nH]ccc78)C6)CC5)CC4)ncc3Cl)ccc2n(C)c1=O` [Compound I-19], in test [1], the Kd was 1 to 10 nM. Also, the figures for the IC50 in test [2] and in test [3] were 5 to 50 nM and less than 5 nM, respectively. In addition, the GI50 in test [4] is less than 500 nM; in test [5] it was 1500 to 3000 nM; with Su-DHL-4 cell line, less than 500 nM; in the test on Farage cell line it was less than 500 nM.

`CCS(=O)(=O)Nc1ccc(Oc2cccc(OCCOCCOC3CCN(c4ncc(Cl)c(Nc5ccc6c(c5)cc(OCC(=O)NC)c(=O)n6C)n4)CC3)c2)c(-c2cn(C)c(=O)c3[nH]ccc23)c1` [Compound I-1, 2-[[6-[[5-chloro-2-[4-[2-[2-[3-[4-(ethylsulfonylamino)-2-(6-methyl-7-oxo-1H-pyrrolo[2,3-c]pyridin-4-yl)phenoxy]phenoxy]ethoxy]ethoxy]-1-piperidyl]pyrimidin-4-yl]amino]-1-methyl-2-oxo-3-quinolyl]oxy]-N-methyl-acetamide] gave a GI50 in the test on Su-DHL-4 cell line of less than 500 nM.

The compound `CCS(=O)(=O)Nc1ccc(Oc2cccc(OCCN3CCN(CCN4CCN(c5ncc(Cl)c(Nc6ccc7c(c6)cc(OCC(=O)NC)c(=O)n7C)n5)CC4)CC3)c2)c(-c2cn(C)c(=O)c3[nH]ccc23)c1` [Compound I-15] had an equilibrium dissociation constant (Kd) in test [1] of 1 to 10 nM. In addition, the concentration for half-maximal inhibition (IC50) in test [2] and in test [3] was less than 5 nM throughout. Also, the GI50 is less than 500 nM in test [4], 500 to 1500 nM in test [5], less than 500 nM in the test on Su-DHL-4 cell line and less than 500 nM in the test on Farage cell line.

In test [1], `CNC(=O)COc1cc2cc(Nc3nc(N4CCC5(CC4)CC(Oc4ccc(C6=N[C@@H](Cc7ncco7)c7nnc(C)n7-c7sc(C)c(C)c76)cc4)C5)ncc3Cl)ccc2n(C)c1=O` [Compound I-25, 2-[[6-[[5-chloro-2-[2-[4-[(9S)-4,5,13-trimethyl-9-(oxazol-2-ylmethyl)-3-thia-1,8,11,12-tetrazatricyclo[8.3.0.02,6]trideca-2 (6),4,7,10,12-pentaen-7-yl]phenoxy]-7-azaspiro[3.5]nonan-7-yl]pyrimidin-4-yl]amino]-1-methyl-2-oxo-3-quinolyl]oxy]-N-methyl-acetamide] yielded a Kd of more than 100 nM. Besides, the IC50 in test [2] is 5 to 50 nM; in test [3] it was less than 5 nM. The GI50 (in test [4]; in test [5]; in the test with Su-DHL-4 cell line; in the test on Farage cell line) was less than 500 nM throughout.

In test [1], `CCS(=O)(=O)Nc1ccc(Oc2cccc(OCCN3CCN(CC4CCN(c5ncc(Cl)c(Nc6ccc7c(c6)cc(OCC(=O)NC)c(=O)n7C)n5)CC4)CC3)c2)c(-c2cn(C)c(=O)c3[nH]ccc23)c1` [Compound I-4] showed a Kd of more than 100 nM. The IC50 in test [2] lay in the range of 50 to 500 nM; in test [3], 5 to 50 nM. The GI50 (in test [4]; in test [5]; with Su-DHL-4 cell line) was less than 500 nM each time.

The compound `CNC(=O)COc1cc2cc(Nc3nc(N4CCC(CN5CC(Oc6ccc(C7=N[C@@H](Cc8ncco8)c8nnc(C)n8-c8sc(C)c(C)c87)cc6)C5)CC4)ncc3Cl)ccc2n(C)c1=O` [Compound I-26] yielded a Kd in test [1] of 10 to 100 nM. The IC50 in test [2] and in test [3] was less than 5 nM each time. The GI50 (in test [4]; in test [5]; in the test on Su-DHL-4 cell line) was less than 500 nM each time.

For the compound `CNC(=O)COc1cc2cc(Nc3nc(N4CCC(CN5CCN(CC[C@H]6C[C@@H](Oc7ccc(C(C)(C)O)cc7-c7cn(C)c(=O)c8[nH]ccc78)C6)CC5)CC4)ncc3Cl)ccc2n(C)c1=O` [Compound I-46], the dissociation constant (Kd) in test [1] was 1 to 10 nM. The IC50 in test [2] and in test [3] was less than 5 nM throughout. Also, the GI50 (in test [4]; in test [5]; with Farage cell line) was less than 500 nM throughout.
